Reference: patent publication US12281080B2, “Quinoline-based compounds and methods of inhibiting CDK8/19” (University of South Carolina, priority 2018, dated 2025)
Where two headings read alike, the source gives them in different places.

Tests used:
[1] = test system: CDK8/19-mediated NFκB-driven transcription; test: NFκB-dependent luciferase reporter assay in parental 293 reporter cells; type: cell-based, human; details: for Inhibition of NFκB reporter activity / inhibition at 1 µM: 1 uM
[2] = test system: HL60-Luc cells; test: HL60-Luc proliferation assay (BLI); type: cell-based; details: HL-60-Luc, 168 h; 7 days
Protocol: The anti-leukemic activity was also evaluated with a HL60 assay. The HL60 assay was performed by a similar procedure as MV4-11 assay. A derivative of the HL-60 leukemia cell line was generated to express Luciferase and ZsGreen by lentiviral infection with pHIV-Luc-ZsGreen, to enable leukemia growth analysis by bioluminescence imaging (BLI). The initial Luciferase-ZsGreen transduced cell population was sorted for ZsGreen positivity with fluorescence activated cell sorting and individual clones were tested for luciferase expression. […] The HL-60 assay was performed in 96-well plates by treating the HL60-Luc cells with testing compounds at different concentrations for 7 days, followed by BLI to quantify the effects of test articles on cell proliferation.

[3] = target: CDK8 in complex with Cyclin C (Homo sapiens (Human), UniProt P49336); test: LanthaScreen Eu Kinase Binding Assay
Chain of CDK8 in complex with Cyclin C (P49336 whole entry): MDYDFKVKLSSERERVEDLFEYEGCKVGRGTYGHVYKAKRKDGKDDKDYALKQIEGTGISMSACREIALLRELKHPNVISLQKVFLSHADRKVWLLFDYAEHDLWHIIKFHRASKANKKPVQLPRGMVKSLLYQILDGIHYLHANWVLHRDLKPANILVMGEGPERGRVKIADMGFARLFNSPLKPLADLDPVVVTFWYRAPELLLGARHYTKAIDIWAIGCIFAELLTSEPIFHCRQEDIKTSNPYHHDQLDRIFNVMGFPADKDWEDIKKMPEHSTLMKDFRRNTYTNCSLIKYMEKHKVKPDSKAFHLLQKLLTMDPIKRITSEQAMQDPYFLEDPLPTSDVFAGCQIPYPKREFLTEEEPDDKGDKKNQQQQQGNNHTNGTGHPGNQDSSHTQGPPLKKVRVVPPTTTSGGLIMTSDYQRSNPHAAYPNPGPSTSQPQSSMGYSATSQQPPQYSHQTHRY
Chain of CDK8 in complex with Cyclin C (P24863 whole entry partner): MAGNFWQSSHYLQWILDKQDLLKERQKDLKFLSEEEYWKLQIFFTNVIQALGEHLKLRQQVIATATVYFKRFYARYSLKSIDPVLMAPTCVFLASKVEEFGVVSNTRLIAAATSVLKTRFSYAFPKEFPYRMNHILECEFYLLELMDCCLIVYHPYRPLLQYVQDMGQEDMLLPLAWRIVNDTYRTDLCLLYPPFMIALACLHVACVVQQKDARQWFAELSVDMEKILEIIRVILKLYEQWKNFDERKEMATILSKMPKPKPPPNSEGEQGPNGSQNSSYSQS
Source text: The binding of the tracer to the kinase is detected using a europium-labeled anti-tag antibody, which binds to the kinase of interest. […] The binding of an inhibitor to the kinase competes for binding with the tracer, resulting in a loss of FRET.

[4] = test system: MV4-11 cells; test: MV4-11-Luc proliferation assay (BLI); type: cell-based; details: Homo sapiens, MV4-11, 168 h; 7 days
Protocol: The anti-leukemic activity was evaluated with a MV4-11 assay. The population of MV4-11 cells, which depend on CDK8/19 for their proliferation, was made to express Luciferase and ZsGreen by lenvtiral infection with pHIV-Luc-ZsGreen, to enable leukemia growth analysis by bioluminescence imaging (BLI). The initial Luciferase-ZsGreen transduced cell population was sorted for ZsGreen positivity with fluorescence activated cell sorting. The MV4-11 assay was performed in 96-well plates by treating the MV4-11-Luc cells with testing compounds at different concentrations for 7 days, followed by BLI to quantify the effects of test articles on cell proliferation.

[5] = test system: MYC; test: QPCR gene expression in TNFα-treated HEK293 cells; type: cell-based, human; details: 1 μM, TNFα-treated HEK293 cells, QPCR; for inhibition at 1 µM: Homo sapiens, read-out: Inhibition at 1 μM (% Ctrl) MYC
Source text: (§1) Two types of cell-based assays for CDK8/19 inhibition were used to test the efficacy of quinoline quinolone compounds described herein (FIG. 3A). The first cell-based assay, which measures the effects of CDK8/19 inhibitors on RNA levels of CDK8/19-regulated genes by quantitative reverse transcription-PCR (QPCR), is based on the ability of CDK8/19 inhibitors to suppress the induction of NFκB-inducible genes by TNFα and to inhibit basal expression of MYC in human embryonic kidney (HEK) 293 cells, as previously described. In this assay, 293 cells growing in DMEM (High-glucose) media supplemented with 10% FBS are pre-treated with the tested inhibitors or DMSO control for 1 hour and then treated with 10 ng/mL TNFα (an activator of NFκB) for 2 hours (in the presence or absence of the tested inhibitors), followed by RNA extraction and QPCR analysis of RNA expression of specific genes conducted as described (Chen et al., ibid), using housekeeping genes RPL13A and GAPDH as normalization standards. […] All the quinoline derivatives inhibited the expression of all three genes.

[6] = test system: CXCL1; test: QPCR gene expression in TNFα-treated HEK293 cells; type: cell-based, human; details: 1 μM, TNFα-treated HEK293 cells, QPCR; for inhibition at 1 µM: Homo sapiens, read-out: Inhibition at 1 μM (% Ctrl) CXCL1
Source text: as §1

[7] = test system: IL8; test: QPCR gene expression in TNFα-treated HEK293 cells; type: cell-based, human; details: 1 μM, TNFα-treated HEK293 cells, QPCR; for inhibition at 1 µM: Homo sapiens, read-out: Inhibition at 1 μM (% Ctrl) IL8
Source text: as §1

[8] = Mouse pharmacokinetics, intraperitoneal, serum; type: in vivo, mice; details: i.p. 27 mg/kg, male Balb/c mice
Protocol: […] Blood samples were collected at different time points (5 mice per time point) and Senexin C concentration in the serum was measured by LC/MS/MS.

[9] = target: CDK8 (Homo sapiens (Human), UniProt P49336); test: DiscoverX Kd assay; details: average from duplicate measurements
Chain of CDK8 (P49336 whole entry): as the sequence (P49336 whole entry) above

[10] = test system: CDK8/19; test: Wash-off assay, MYC and JUN expression in 293 cells (QPCR); type: cell-based, human; details: 1 μM for 2 hours, then wash-off
Protocol: RNA was extracted at different time points after wash-off (up to 24 hrs) and expression of MYC and JUN genes that are CDK8/19-dependent in these cells was measured by QPCR. […] In contrast, after Senexin C treatment and wash-off, the effects of Senexin C were largely retained for at least 6 hrs after wash-off.

[11] = target: MYO3B (Homo sapiens (Human), UniProt Q8WXR4); test: DiscoverX Kd assay
Chain of MYO3B (Q8WXR4 whole entry): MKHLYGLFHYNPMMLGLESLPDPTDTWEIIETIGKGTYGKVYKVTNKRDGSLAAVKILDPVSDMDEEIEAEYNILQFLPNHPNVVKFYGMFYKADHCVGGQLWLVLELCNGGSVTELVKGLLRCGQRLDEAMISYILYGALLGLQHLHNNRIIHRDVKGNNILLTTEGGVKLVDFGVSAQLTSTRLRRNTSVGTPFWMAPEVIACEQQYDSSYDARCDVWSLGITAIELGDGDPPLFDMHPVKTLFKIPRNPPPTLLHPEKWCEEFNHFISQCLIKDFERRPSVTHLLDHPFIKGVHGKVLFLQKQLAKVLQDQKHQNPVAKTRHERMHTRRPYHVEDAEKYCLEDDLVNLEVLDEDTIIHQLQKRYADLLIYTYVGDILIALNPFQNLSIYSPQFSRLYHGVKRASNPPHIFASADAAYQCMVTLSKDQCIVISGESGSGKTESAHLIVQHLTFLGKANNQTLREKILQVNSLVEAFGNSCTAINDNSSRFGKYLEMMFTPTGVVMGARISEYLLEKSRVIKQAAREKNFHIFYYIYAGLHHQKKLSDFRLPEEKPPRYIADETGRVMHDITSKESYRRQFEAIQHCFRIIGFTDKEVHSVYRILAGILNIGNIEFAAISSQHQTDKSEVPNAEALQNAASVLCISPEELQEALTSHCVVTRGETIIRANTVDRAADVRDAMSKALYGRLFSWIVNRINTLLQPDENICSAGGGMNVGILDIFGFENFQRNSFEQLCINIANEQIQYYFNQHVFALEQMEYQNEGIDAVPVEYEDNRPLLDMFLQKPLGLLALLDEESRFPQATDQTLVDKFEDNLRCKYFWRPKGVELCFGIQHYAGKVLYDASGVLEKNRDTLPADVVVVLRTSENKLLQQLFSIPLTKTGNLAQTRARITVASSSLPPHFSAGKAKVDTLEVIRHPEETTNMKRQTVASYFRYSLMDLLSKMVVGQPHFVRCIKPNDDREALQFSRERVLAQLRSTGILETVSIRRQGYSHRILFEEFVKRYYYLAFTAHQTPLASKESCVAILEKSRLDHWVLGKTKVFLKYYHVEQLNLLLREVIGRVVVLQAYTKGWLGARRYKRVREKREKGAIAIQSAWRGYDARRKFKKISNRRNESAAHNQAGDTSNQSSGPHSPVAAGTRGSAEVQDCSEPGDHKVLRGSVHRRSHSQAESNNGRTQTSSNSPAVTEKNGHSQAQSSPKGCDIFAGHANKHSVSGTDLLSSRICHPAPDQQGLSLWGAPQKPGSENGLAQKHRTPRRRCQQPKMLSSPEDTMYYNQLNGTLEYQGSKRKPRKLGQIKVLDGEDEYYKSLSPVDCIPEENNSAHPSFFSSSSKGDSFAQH

[12] = target: HASPIN (Homo sapiens (Human), UniProt Q8TF76); test: DiscoverX Kd assay; details: average from duplicate measurements
Chain of HASPIN (Q8TF76 whole entry): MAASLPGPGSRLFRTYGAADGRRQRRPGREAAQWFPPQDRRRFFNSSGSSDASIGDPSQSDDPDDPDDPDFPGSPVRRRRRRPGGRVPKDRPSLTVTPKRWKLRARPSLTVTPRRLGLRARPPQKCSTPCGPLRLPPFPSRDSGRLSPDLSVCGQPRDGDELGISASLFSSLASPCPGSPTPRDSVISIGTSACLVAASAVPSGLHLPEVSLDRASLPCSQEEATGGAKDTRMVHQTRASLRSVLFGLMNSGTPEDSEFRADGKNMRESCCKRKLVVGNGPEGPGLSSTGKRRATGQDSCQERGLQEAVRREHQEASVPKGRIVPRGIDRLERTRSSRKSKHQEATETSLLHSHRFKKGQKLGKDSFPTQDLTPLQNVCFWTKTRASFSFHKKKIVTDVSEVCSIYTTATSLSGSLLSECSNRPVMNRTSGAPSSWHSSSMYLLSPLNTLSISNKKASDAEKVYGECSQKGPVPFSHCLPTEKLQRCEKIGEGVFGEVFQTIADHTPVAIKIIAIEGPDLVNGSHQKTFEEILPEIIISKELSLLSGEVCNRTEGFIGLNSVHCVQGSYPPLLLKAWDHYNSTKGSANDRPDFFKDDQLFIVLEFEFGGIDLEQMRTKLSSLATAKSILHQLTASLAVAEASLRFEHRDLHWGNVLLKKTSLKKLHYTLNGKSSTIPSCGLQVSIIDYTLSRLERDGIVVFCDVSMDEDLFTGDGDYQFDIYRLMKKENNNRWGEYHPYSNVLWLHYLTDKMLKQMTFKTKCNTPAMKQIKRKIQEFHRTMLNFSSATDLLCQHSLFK

[13] = target: MAP4K2 (Homo sapiens (Human), UniProt Q12851); test: DiscoverX Kd assay; details: average from duplicate measurements
Chain of MAP4K2 (Q12851 whole entry): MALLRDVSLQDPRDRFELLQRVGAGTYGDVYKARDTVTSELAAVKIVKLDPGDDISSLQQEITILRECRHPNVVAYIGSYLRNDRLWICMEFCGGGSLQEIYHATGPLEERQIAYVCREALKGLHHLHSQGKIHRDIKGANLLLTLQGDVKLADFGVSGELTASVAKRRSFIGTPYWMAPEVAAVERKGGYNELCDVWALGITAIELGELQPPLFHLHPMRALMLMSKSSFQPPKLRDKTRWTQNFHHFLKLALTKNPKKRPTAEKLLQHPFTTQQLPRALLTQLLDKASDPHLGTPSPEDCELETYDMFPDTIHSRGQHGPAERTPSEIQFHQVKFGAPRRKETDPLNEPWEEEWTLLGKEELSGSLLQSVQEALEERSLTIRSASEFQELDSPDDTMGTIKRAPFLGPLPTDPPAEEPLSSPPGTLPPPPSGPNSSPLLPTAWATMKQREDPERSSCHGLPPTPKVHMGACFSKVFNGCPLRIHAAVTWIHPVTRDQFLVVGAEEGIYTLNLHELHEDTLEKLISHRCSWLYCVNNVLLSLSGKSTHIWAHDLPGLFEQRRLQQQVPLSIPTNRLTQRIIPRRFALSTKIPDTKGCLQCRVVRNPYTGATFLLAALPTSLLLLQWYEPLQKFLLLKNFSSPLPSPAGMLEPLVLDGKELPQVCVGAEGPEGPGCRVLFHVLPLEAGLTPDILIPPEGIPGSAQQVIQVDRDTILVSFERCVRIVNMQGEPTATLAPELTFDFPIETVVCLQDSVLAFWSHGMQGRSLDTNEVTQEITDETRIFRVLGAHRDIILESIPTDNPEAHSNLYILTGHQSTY

[14] = test system: NFκB-dependent promoter in CDK8/19 deficient (double-knockout) reporter cells; test: NFκB-dependent luciferase reporter assay, CDK8/19 double-knockout vs wild-type 293 cells; details: double-knockout vs parental reporter cells
Source text: The second cell-based assay measures the effects of CDK8/19 on the expression of firefly luciferase reporter from a NFκB-dependent promoter in 293 cells.

[15] = Homo sapiens, 293/NFkB-luc, read-out: IC50 (293-NFKB-Luc)
[16] = parental 293-derived reporter cell line, read-out: HEK293 NFKB CDK8 Reporter IC50

Row | Structure (SMILES) | IC50 [1, 15] [nM] | IC50 [2] [nM] | IC50 [3] [nM] | IC50 [4] [nM] | other results
1 | N#Cc1ccc2nccc(NCCc3ccc4cc(C(=O)N5CCN(CCCN)CC5)ccc4c3)c2c1 [compound 6346, 4-[2-[6-[4-(3-aminopropyl)piperazine-1-carbonyl]-2-naphthyl]ethylamino]quinoline-6-carbonitrile] | 837 | 308 | 6.5 |  | 
2 | Clc1ccc2nccc(NCCc3ccccc3)c2c1 [compound 6145, 6-chloro-N-phenethylquinolin-4-amine] |  |  |  |  | Inhibition of NFκB reporter activity [1]: N.A. (8% inh. at 1 uM); inhibition at 1 µM ([1]; Homo sapiens): < 15%
3 | Brc1ccc2nccc(NCCc3ccccc3)c2c1 [compound 6146, 6-bromo-N-phenethylquinolin-4-amine] |  |  |  |  | Inhibition of NFκB reporter activity [1]: N.A. (10% inh. at 1 uM); inhibition at 1 µM ([1]; Homo sapiens): < 15%
4 | Nc1ccc2nccc(NCCc3ccccc3)c2c1 [compound 6164, N4-phenethylquinoline-4,6-diamine] |  |  |  |  | inhibition at 5 µM ([1]; Homo sapiens, 5 uM): 5%
5 | CC(=O)N1CCN(C(=O)c2ccc3cc(CCNc4ccnc5ccc(C#N)cc45)ccc3c2)CC1 [compound 6326, 4-[2-[6-(4-acetylpiperazine-1-carbonyl)-2-naphthyl]ethylamino]quinoline-6-carbonitrile] | 178 | 162 | 11.7 | 295 | 
6 | CN(CCCN)C(=O)c1ccc2cc(CCNc3ccnc4ccc(C#N)cc34)ccc2c1 [compound 6337, N-(3-aminopropyl)-6-[2-[(6-cyano-4-quinolyl)amino]ethyl]-N-methyl-naphthalene-2-carboxamide] | 113 | 255 | 9.2 |  | 
7 | N#Cc1ccc2nccc(NCCc3ccc4cc(C(=O)N5CC[S+]([O-])CC5)ccc4c3)c2c1 [compound 6295, 4-[2-[6-(1-oxo-1,4-thiazinane-4-carbonyl)-2-naphthyl]ethylamino]quinoline-6-carbonitrile] | 160 | 163 | 5.8 | 218 | 
8 | N#Cc1ccc2nccc(NCCc3ccc4cc(C(=O)N5CCSCC5)ccc4c3)c2c1 [compound 6294, 4-[2-[6-(thiomorpholine-4-carbonyl)-2-naphthyl]ethylamino]quinoline-6-carbonitrile] | 107 | 73.4 | 9.7 | 92 | 
9 | N#Cc1ccc2ncnc(NCCc3ccccc3)c2c1 [Senexin A, reference compound] |  |  |  |  | Inhibition at 1 μM (% Ctrl) MYC [5]: 24.94%; Inhibition at 1 μM (% Ctrl) CXCL1 [6]: 34.19%; Inhibition at 1 μM (% Ctrl) IL8 [7]: 29.53%; IC50 [1, 16]: 355 nM
10 | CN(CCCNC(=O)OC(C)(C)C)C(=O)c1ccc2cc(CCNc3ccnc4ccc(C#N)cc34)ccc2c1 [compound 6336, tert-butyl-N-[3-[[6-[2-[(6-cyano-4-quinolyl)amino]ethyl]naphthalene-2-carbonyl]-methyl-amino]propyl]carbamate] | 208 | 154 | 9.3 | 181 | 
11 | CN1CCN(C(=O)c2ccc3cc(CCNc4ncnc5ccc(C#N)cc45)ccc3c2)CC1 [Senexin B, reference compound] |  |  |  |  | AUC [8]: 1760.53 ng·h/mL; Cmax [8]: 4248 ng/mL; bioavailability (F %) [8]: 57%; elimination rate k [8]: 3.99 h⁻¹; t1/2 [8]: 10.2 min; Kd [9]: 59 nM; IC50 [1, 16]: 117 nM; Time to full restoration of JUN expression after wash-off [10]: 45 min; Time to full restoration of MYC expression after wash-off [10]: 2 h; Inhibition of MYO3B [11]: not inhibited; Kd [12]: 1700 nM; Kd [13]: 570 nM
12 | CN(C)C(=O)c1ccc2cc(CCNc3ccnc4ccc(C#N)cc34)ccc2c1 [compound 6219, 6-(2-((6-cyanoquinolin-4-yl)amino)ethyl)-N,N-dimethyl-2-naphthamide] |  | 77 |  |  | 
13 | Ic1ccc2nccc(NCCc3ccccc3)c2c1 [compound 6147, 6-iodo-N-phenethylquinolin-4-amine] |  |  |  |  | inhibition at 1 µM ([1]; Homo sapiens): < 15%
14 | N#Cc1ccc2nccc(NCCc3ccc4cc(C(=O)N5CCS(=N)(=O)CC5)ccc4c3)c2c1 [compound 6299, 4-[2-[6-(1-imino-1-oxo-1,4-thiazinane-4-carbonyl)-2-naphthyl]ethylamino]quinoline-6-carbonitrile] | 213 | 260 | 4.6 | 275 | 
15 | CC(C)Nc1ccnc2ccc(C#N)cc12 [compound 6136, 4-(isopropylamino)quinoline-6-carbonitrile] |  |  |  |  | inhibition at 1 µM [5]: 65.6%; inhibition at 1 µM [6]: 80.3%; inhibition at 1 µM [7]: 74.1%
16 | N#Cc1ccc2nccc(NCCc3ccc4cc(C(=O)N5CCN(CCCO)CC5)ccc4c3)c2c1 [compound 6216, 4-((2-(6-(4-(3-hydroxypropyl)piperazine-1-carbonyl)naphthalen-2-yl)ethyl)amino)quinoline-6-carbonitrile] |  | 161 |  |  | 
17 | CCCNc1ccnc2ccc(C#N)cc12 [compound 6134, 4-(propylamino)quinoline-6-carbonitrile] |  |  |  |  | inhibition at 1 µM [5]: 57.2%; inhibition at 1 µM [6]: 72.2%; inhibition at 1 µM [7]: 62.1%
18 | CC(C)(C)OC(=O)N1CCN(C(=O)c2ccc3cc(CCNc4ccnc5ccc(C#N)cc45)ccc3c2)CC1 [compound 6440, tert-butyl 4-[6-[2-[(6-cyano-4-quinolyl)amino]ethyl]naphthalene-2-carbonyl]piperazine-1-carboxylate] | 137 | 67 | 18.9 | 146 | 
19 | Cc1ccc(S(=O)(=O)N[C@@H](Cc2ccccc2)C(=O)CCl)cc1 [TPCK, reference compound] |  |  |  |  | IC50 in CDK8/19-deficient cells relative to wild-type cells [14]: almost the same
20 | N#Cc1ccc2nccc(NCCc3ccc4cc(C(=O)N5CCNCC5)ccc4c3)c2c1 [compound 6283, 4-((2-(6-(piperazine-1-carbonyl)naphthalen-2-yl)ethyl)amino)quinoline-6-carbonitrile] |  | 756 |  |  | 
21 | CC(C)(C)OC(=O)NCCCN1CCN(C(=O)c2ccc3cc(CCNc4ccnc5ccc(C#N)cc45)ccc3c2)CC1 [compound 6345, tert-butyl-(3-(4-(6-(2-((6-cyanoquinolin-4-yl)amino)ethyl)-2-naphthoyl)piperazin-1-yl)propyl)carbamate] | 85 | 61 | 8.1 | 122 | 
22 | FC(F)(F)c1ccc2nccc(NCCc3ccccc3)c2c1 [compound 6150, N-phenethyl-6-(trifluoromethyl)quinolin-4-amine] |  |  |  |  | Inhibition of NFκB reporter activity [1]: N.A. (10% inh. at 1 uM); inhibition at 1 µM ([1]; Homo sapiens): < 15%
